{"source": "paper PMC3923314", "about": "(Biomacromolecules, 2013)", "key": {"[1]": {"details": "after injection of free DOX; cited from earlier work"}, "normal rat striatum": {"test_system": "normal rat striatum", "assay": "Convection-enhanced delivery", "type": "in vivo", "details": "CED, 20 μl, DOX 0.2 mg/ml, Sprague Dawley rats, a week after infusion"}}}
{"smiles": "COc1cccc2c1C(=O)c1c(O)c3c(c(O)c1C2=O)C[C@@](O)(C(=O)CO)C[C@@H]3O[C@H]1C[C@H](N)[C@H](O)[C@H](C)O1", "note": "[free DOX, doxorubicin]", "values": [{"measurement": "clearance time from blood circulation", "setting": "[1]", "result": "tens of minutes"}, {"measurement": "toxicity to brain tissue (H&E staining)", "setting": "normal rat striatum", "result": "significant tissue damage"}]}
